IC50 data for 30 compounds are collected here from patent US6780883B2, “Amide inhibitors of microsomal triglyceride transfer protein” (Warner-Lambert Company, priority 1998, dated 2004).

Assay [1] has as its system Lp(a) production in HepG2^K17 cells. Put plainly: LPA3 screen: inhibition of Lp(a) production in transfected HepG2 cells, Lp(a) in media by ELISA. The format is cell-based. The conditions noted are these: 8 hours, 0.3 to 50 μM compound, Lp(a) normalized for total protein, read-out: Lp A3 IC50. The procedure:
The LPA3 screen is used to identify compounds that inhibit Lp(a) production. This screen employs permanently transfected HepG2 cells (HepG2^K17) that are generated using an apo(a) 17-kringle cDNA expression construct (pcDNA-AMP, In Vitrogen, Carlsbad, Calif.) in accordance with methods that are well-known in molecular biology.
HepG2^K17 cells are seeded in 96-well plates at a density of 75,000 cells per well in 0.25 mL of Dulbecco's Modified Eagle Media (DMEM) containing 10% fetal bovine serum (FBS). Seeded plates are incubated overnight in a 37° C., 5% CO2/95% 02 incubator. The media is removed, replaced with (1) fresh media, or (2) fresh media plus 0.3 to 50 μM of a compound of the present invention in 20 μL of PBS, and the plates returned to the incubator for 8 hours. After the additional 8 hours of incubation, Lp(a) is assayed in the media by ELISA. Cells are digested with 0.5N NaOH overnight and assayed for total protein. Lp(a) values are normalized for total protein content.
Background: An ELISA detects its analyte on a solid surface through an enzyme-linked reagent.

Assay [2] addresses apolipoprotein(a), [apo(a)], apolipoproteinB-100, [apoB-100], coupling reaction that generates Lp(a) (Homo sapiens, UniProt P04114+P08519). Put plainly: LPABC screen: lipoprotein(a) biochemical coupling assay, Lp(a) content by ELISA. The conditions noted are these: recombinant apo(a) 17-kringle (293 cell media) + HepG2 conditioned media, 67 minutes, 37° C., 0.3 to 50 μM compound; read-out: Lp ABC IC50. The procedure: LPABC Screen The lipoprotein(a), [Lp(a)], biochemical coupling assay (LPABC) is used to characterize inhibitors of the apolipoprotein(a), [apo(a)], apolipoproteinB-100, [apoB-100], coupling reaction that generates Lp(a). Conditioned media from 293 cells (ATCC CRL-1573), permanently transfected with an apo(a) 17-kringle cDNA expression construct (pcDNA-AMP, In Vitrogen, Carlsbad, Calif.) using standard molecular biology techniques, was used as a source of recombinant apo(a) is diluted 1:3 with phosphate buffered saline (PBS) and 90 μL is pipetted into each well of a 96-well plate and placed into a 37° C. incubator for 10 minutes. Twenty microliters of a 0.3 to 50 μM solution of a compound of the present invention in PBS is added to the warmed plate. Ninety microliters of HepG2 (ATCC HB-8065) cell conditioned media diluted 1:3 with PBS is added to the apo(a)/compound mixture and mixed by pipetting up and down 5 times. The reaction is incubated for 67 minutes in a 37° C. incubator. A 100 μL aliquot of the reaction is removed and assayed for its Lp(a) content by an enzyme linked immunosorbent assay (ELISA).

Read-outs that look alike come from different tables or passages of the source. Bounds are passed on as bounds.

Broadly, the IC50 is the midpoint of a concentration-inhibition curve. As to `COc1ccc(CN(C(=O)c2ccccc2SCc2ccccc2)c2ccc(OC)cc2)cc1` [Example 40, 2-Benzylsulfanyl-N-(4-methoxy-benzyl)-N-(4-methoxy-phenyl)-benzamide], the IC50 is 60.4 µM in assay [1] (Homo sapiens) and greater than 50 µM in assay [2]. Regarding `COc1ccc(C(=O)N(Cc2cc(C(C)(C)C)cc(C(C)(C)C)c2)c2ccccc2)cc1OC` [Example 41, N-(3,5-Di-tert-butyl-benzyl)-3,4-dimethoxy-N-phenyl-benzamide], the IC50 is 49.3 µM in assay [1] (Homo sapiens) and greater than 50 µM in assay [2]. Regarding `COc1ccc(C(=O)N(Cc2cc(C(F)(F)F)cc(C(F)(F)F)c2)c2ccccc2)cc1OC` [Example 42, N-(3,5-Bis-trifluoromethyl-benzyl)-3,4-dimethoxy-N-phenyl-benzamide], the IC50 was 70.8 µM in assay [1] (Homo sapiens) and greater than 50 µM in assay [2]. For `COc1ccc(C(=O)N(Cc2cc(Br)cc(Br)c2)c2ccccc2)cc1OC` [Example 43, N-(3,5-Dibromo-benzyl)-3,4-dimethoxy-N-phenyl-benzamide] the same measures were 31.6 µM and greater than 50 µM. As for `COc1ccc(CN(C(=O)c2ccc(OC)c(OC)c2)c2ccccc2)cc1` [Example 44, 3,4-Dimethoxy-N-(4-methoxy-benzyl)-N-phenyl-benzamide], the IC50 in assay [1] (Homo sapiens) was 51.4 µM; in assay [2], greater than 50 µM.

With `COc1cccc(CN(C(=O)c2ccc(OC)c(OC)c2)c2ccccc2)c1` [Example 45, 3,4-Dimethoxy-N-(3-methoxy-benzyl)-N-phenyl-benzamide], the figures for the IC50 in assay [1] (Homo sapiens) and in assay [2] were 52.1 µM and greater than 50 µM, respectively. Taken in the same sequence, the figures for `COc1ccc(C(=O)N(Cc2ccc(Cl)c(Cl)c2)c2ccccc2)cc1OC` [Example 46, N-(3,4-Dichloro-benzyl)-3,4-dimethoxy-N-phenyl-benzamide] were 35.1 µM and greater than 50 µM.

For `COc1ccc(C(=O)N(Cc2ccc3ccccc3c2)c2ccccc2)cc1OC` [Example 47, 3,4-Dimethoxy-N-naphthalen-2-ylmethyl-N-phenyl-benzamide], the IC50 in assay [1] (Homo sapiens) is 17.3 µM; in assay [2], greater than 50 µM.

Take `COc1ccc(C(=O)N(Cc2ccc(C(C)(C)C)cc2)c2ccccc2)cc1OC` [Example 48, N-(4-tert-Butyl-benzyl)-3,4-dimethoxy-N-phenyl-benzamide]: the IC50 is 30.9 µM in assay [1] (Homo sapiens) and greater than 50 µM in assay [2]. Taken in the same sequence, the figures for `COc1ccc(C(=O)N(Cc2ccccc2-c2ccccc2)c2ccccc2)cc1OC` [Example 49, N-Biphenyl-2-ylmethyl-3,4-dimethoxy-N-phenyl-benzamide] were 14 µM and greater than 50 µM.

For the compound `COc1ccccc1N(Cc1ccc(Cl)c(Cl)c1)C(=O)c1ccccc1` [Example 50, N-(3,4-Dichloro-benzyl)-N-(2-methoxy-phenyl)-benzamide], the half-inhibitory concentration (IC50) in assay [1] (Homo sapiens) is 15 µM; in assay [2], greater than 50 µM. Taken in the same sequence, the figures for `CCN(CC)CCCc1ccc(N(Cc2cc(C(C)(C)C)cc(C(C)(C)C)c2)C(=O)c2ccccc2)cc1` [Example 51, N-(3,5-Di-tert-butyl-benzyl)-N-[4-(3-diethylamino-propyl)-phenyl]-benzamide] were 24.5 µM and greater than 50 µM. Taken in the same sequence, the figures for `CCN(CC)CCCc1ccc(N(Cc2cc(C(F)(F)F)cc(C(F)(F)F)c2)C(=O)c2ccccc2)cc1` [Example 52, N-(3,5-Bis-trifluoromethyl-benzyl)-N-[4-(3-diethylamino-propyl)-phenyl]-benzamide] were 12 µM and greater than 50 µM.

`CCN(CC)CCCc1ccc(N(Cc2cc(Br)cc(Br)c2)C(=O)c2ccccc2)cc1` [Example 53, N-(3,5-Dibromo-benzyl)-N-[4-(3-diethylamino-propyl)-phenyl]-benzamide]: the IC50 in assay [1] (Homo sapiens) is 14.6 µM; in assay [2], greater than 50 µM. Taken in the same sequence, the figures for `CCN(CC)CCCc1ccc(N(Cc2ccc(OC)cc2)C(=O)c2ccccc2)cc1` [Example 54, N-[4-(3-Diethylamino-propyl)-phenyl]-N-(4-methoxy-benzyl)-benzamide] were 41.6 µM and greater than 50 µM. Taken in the same sequence, the figures for `CCN(CC)CCCc1ccc(N(Cc2cccc(OC)c2)C(=O)c2ccccc2)cc1` [Example 55, N-[4-(3-Diethylamino-propyl)-phenyl]-N-(3-methoxy-benzyl)-benzamide] were 37 µM and greater than 50 µM. For `CCN(CC)CCCc1ccc(N(Cc2ccc(Cl)c(Cl)c2)C(=O)c2ccccc2)cc1` [Example 56, N-(3,4-Dichloro-benzyl)-N-[4-(3-diethylamino-propyl)-phenyl]-benzamide], the results for the IC50 in assay [1] (Homo sapiens) and in assay [2] were 11 µM and greater than 50 µM, respectively. For `CCN(CC)CCCc1ccc(N(Cc2ccc3ccccc3c2)C(=O)c2ccccc2)cc1` [Example 57, N-[4-(3-Diethylamino-propyl)-phenyl]-N-naphthalen-2-ylmethyl-benzamide] the same measures were 11.4 µM and greater than 50 µM.

`CCN(CC)CCCc1ccc(N(Cc2ccccc2-c2ccccc2)C(=O)c2ccccc2)cc1` [Example 58, N-Biphenyl-2-ylmethyl-N-[4-(3-diethylamino-propyl)-phenyl]-benzamide]: the values for the IC50 in assay [1] (Homo sapiens) and in assay [2] were 11.6 µM and greater than 50 µM, respectively. For `Cc1ccsc1C(=O)N(Cc1ccc2c(c1)C(C)(C)CCC2(C)C)c1ccc(I)cc1` [Example 59, 3-Methyl-thiophene-2-carboxylic acid (4-iodo-phenyl)-(5,5,8,8-tetramethyl-5,6,7,8-tetrahydro-naphthalen-2-ylmethyl)-amide] the same measures were 41.1 µM and greater than 50 µM. For `COc1ccc(CN(C(=O)c2ccccc2)c2ccccc2)cc1` [Example 60, N-(4-Methoxy-benzyl)-N-phenyl-benzamide] the same measures were 28.8 µM and greater than 50 µM.

`COc1cccc(CN(C(=O)c2ccccc2)c2ccccc2)c1` [Example 61, N-(3-Methoxy-benzyl)-N-phenyl-benzamide]: the IC50 in assay [1] (Homo sapiens) was 47.1 µM; in assay [2], greater than 50 µM. For `COc1cc(C(=O)N(Cc2ccc3ccccc3c2)c2cnc3ccccc3c2)cc(OC)c1OC` [Example 62, 3,4,5-Trimethoxy-N-naphthalen-2-ylmethyl-N-quinolin-3-yl-benzamide] the same measures were 22.2 µM and greater than 50 µM. For the compound `COc1cc(C(=O)N(Cc2ccc(C(C)(C)C)cc2)c2cnc3ccccc3c2)cc(OC)c1OC` [Example 63, N-(4-tert-Butyl-benzyl)-3,4,5-trimethoxy-N-quinolin-3-yl-benzamide], the IC50 in assay [1] (Homo sapiens) was 25.1 µM; in assay [2] it was greater than 50 µM.

In the case of `COc1cc(C(=O)N(Cc2ccccc2-c2ccccc2)c2cnc3ccccc3c2)cc(OC)c1OC` [Example 64, N-Biphenyl-2-ylmethyl-3,4,5-trimethoxy-N-quinolin-3-yl-benzamide], the IC50 in assay [1] (Homo sapiens) is 13.1 µM; in assay [2], greater than 50 µM.

With `COc1ccc(N(Cc2ccc3c(c2)C(C)(C)CCC3(C)C)C(=O)c2cc(OC)c(OC)c(OC)c2)cn1` [Example 65, 3,4,5-Trimethoxy-N-(6-methoxy-pyridin-3-yl)-N-(5,5,8,8-tetramethyl-5,6,7,8-tetrahydro-naphthalen-2-ylmethyl)-benzamide], the values for the IC50 in assay [1] (Homo sapiens) and in assay [2] were 32.6 µM and greater than 50 µM, respectively. As to `COc1ccc(N(Cc2cc(C(C)(C)C)cc(C(C)(C)C)c2)C(=O)c2cc(OC)c(OC)c(OC)c2)cn1` [Example 66, N-(3,5-Di-tert-butyl-benzyl)-3,4,5-trimethoxy-N-(6-methoxy-pyridin-3-yl)-benzamide], the IC50 in assay [1] (Homo sapiens) is 19.7 µM; in assay [2], greater than 50 µM.

Take `COc1ccc(N(Cc2ccc(Cl)c(Cl)c2)C(=O)c2cc(OC)c(OC)c(OC)c2)cn1` [Example 67, N-(3,4-Dichloro-benzyl)-3,4,5-trimethoxy-N-(6-methoxy-pyridin-3-yl)-benzamide]: the IC50 in assay [1] (Homo sapiens) is 54.6 µM; in assay [2] it was greater than 50 µM. Taken in the same sequence, the figures for `CC(C)c1ccc(C(=O)N(Cc2ccc3c(c2)C(C)(C)CCC3(C)C)c2cccnc2)cc1` [Example 68, 4-Isopropyl-N-pyridin-3-yl-N-(5,5,8,8-tetramethyl-5,6,7,8-tetrahydro-naphthalen-2-ylmethyl)-benzamide] were 39.8 µM and greater than 50 µM.

Take “N-Biphenyl-2-ylmethyl-N-(3,4-dimethoxy-phenyl)-2-phenylmethanesulfinyl- [Example 143]”: the IC50 in assay [1] came out at 1.6 µM.
